# Laboratory results as given in patent US7709537B1, “Food materials useful in preventing and ameliorating metabolic bone diseases and preventives/remedies for metabolic bone diseases comprising these materials” (Meiji Dairiese Corporation, priority 1999, dated 2010).
# Key:
# [1] = tested on: human osteoblasts (SaM-1); test: Mineralization (Ca and P accumulation in extracellular matrices) of human osteoblasts; format: cell-based; settings: SaM-1 cells, 32 days, 2 mM glycerophosphoric acid
# Protocol: Employed were cultured human osteoblasts (SaM-1), which had been established from the periosteum of an ulna of a person obtained during a surgical operation of a fractured bone. Those SaM-1 cells were equipped with all the characteristics of osteoblasts (Koshihara, Y. et al.: In Vitro Cell, Dev. Biol., 25, 37-43, 1989). SaM-1 cells are known to promote mineralization in the presence of 2 mM a-glycerophosphoric acid, depending upon the concentration of 1α,25(OH)2D3.
# SaM-1 cells of 18 PDL (population doubling level) were seeded to a 12-well plate, and cultured to a confluent state. a-Glycerophosphoric acid, a mineralization promoter, was then added to 2 mM. […]
# Ca in each extracellular matrix was quantitated by using a kit (“Calcium C Test Wako”) based on the o-cresolphthalein complexone method (OCPC method).
# After completion of the culture, the cells were washed with Hanks' solution. […] Five minutes later, the reaction mixtures were measured by an absorptiometer (570 nm)(FIG. 6).
# P in each extracellular matrix was quantitated by the method proposed by Chen et al. (Chen, P. S. et al.: Anal. Chem., 28, 1756-1758, 1956).
# 0.84% Ammonium molybdate, 2 N sulfuric acid and 10% ascorbic acid were mixed at 3:3:1 (volume ratio) to prepare a reaction reagent. The extracts (100 μL) obtained in the above-described Ca quantitation were each diluted with distilled water (800 μL). […]
# [2] = tested on: stromal cell line ST-2 derived from mouse bone marrow; test: ALP activity of ST-2 cells cultured with ACNQ (osteogenesis promoting effect); format: cell-based
# Protocol: Cells of the stromal cell line ST-2 derived from mouse bone marrow (Udagawa, N. et al.: Endocrinology 125, 1805-1813, 1989) were used as osteoblasts. These cells have similar osteoclast differentiation inducing ability for bone marrow cells as osteoblasts.
# The cells were seeded in the individual wells of a 96-well plate at 4×10^4 cells/well, and cultured for 1 day in RPMI 1640 medium which contained 10% FBS, penicillin G and streptomycin.
# The medium was replaced by the same medium which contained ACNQ, and cultured further for 3 days. After the culture, the ALP activity of cells was assayed.
# (§1) The cells were washed with PBS, and then immobilized with ethanol for 1 minute. An enzyme reaction solution (a buffer containing p-nitrophenyl phosphate, 0.1 M glycine, 1 mM MgCl2 and 0.1 mM ZnCl2 as substrates, pH 10.5) of 37° C. was added to have the cells reacted at 37° C. for 30 minutes. An equiamount of 0.05 N NaOH was added to quench the reaction. ALP activity was expressed in terms of units, with 1 unit representing the amount of p-nitrophenol formed in a minute per mg-protein as measured in terms of absorbance at 415 nm). Protein contents were determined using a protein assay kit (product of Bio-Rad Lab.). Further, the cytotoxicity of ACNQ was measured by MTT assay (FIG. 5).
# [3] = tested on: stromal cell line ST-2 derived from mouse bone marrow; test: Cytotoxicity of ACNQ by MTT assay in ST-2 cells; format: cell-based; settings: at the peak concentration of ALP activity, 1 μg/mL (FIG. 5)
# Protocol: as §1
# [4] = tested on: human osteoblasts (SaM-1); test: Cytotoxicity by free LDH in culture supernatant of SaM-1 cells; format: cell-based; settings: 32nd day of culture, 10^−5 M to 10^−7 M (FIG. 8)
# Protocol: Using “LDH-Cytotoxic Test Wako” (cytotoxicity assay kit), free LDH in each culture supernatant was measured to investigate the cytotoxicity of ACNQ. Culture supernatants on the 32nd day of culture were sampled, and subsequent to a staining reaction, their LDH concentrations were measured by using a microplate reader (540 nm).
# [5] = tested on: human bone marrow cells (monocytes); test: Formation of TRAP-positive polykaryocytes in culture of human bone marrow monocytes; format: cell-based
# Protocol: (1) Human bone marrow cells obtained during an artificial caput replacement operation were subjected to density-gradient centrifugation to collect monocytes. Those monocytes were seeded into α-MEM medium, which contained 20% equine serum and 10^−8 M 1α,25(OH)2D3, to give 8×10^5 cells/well (079 cm^2), and were then cultured for […]. The cultures were each replaced twice a week by a half of its volume each time. Addition of ACNQ was conducted at the beginning.
# On the 16th day of culture, the cultures were treated with pronase and EDTA to eliminate stromal cells. On the following day, the cells were washed with PBS(−) and then immobilized with formalin. The formalin-immobilized cells were subjected to TRAP staining, and the TRAP-positive polykaryocyte counts of the respective wells were determined. Vitamin K1 was used as a control.
# [6] = tested on: primary osteoblast-like interstitial cells and bone marrow cells of ddY mice; test: Osteoclast formation in co-culture of mouse osteoblast-like interstitial cells and bone marrow cells; format: cell-based
# Excerpt: (2) The calvaria of ddY mice newborn were enzymatically treated (with a mixed solution of collagenase and disperse) to obtain primary osteoblast-like interstitial cells. On the other hand, bone marrow cells were isolated from the femurs and shinbones of the same strain mice (males of 6 to 9 weeks of age). The primary osteoblast-like interstitial cells and bone marrow cells were co-cultured in the presence of ACNQ to investigate differentiation induction effect of ACNQ on osteoclasts.
# Using αMEM added with 10% FBS, a culture which contained the primary osteoblast-like interstitial cells and the bone marrow cells at a cell count ratio of about 1:20 was co-cultured in the presence of 10^−8 M to 10^−10 M 1α,25(OH)2D3 for 6 to 8 days. During the culture period, ACNQ solutions of various concentrations and as a control for comparison, vitamin K2 which is known to inhibit the formation of osteoclasts, were added, respectively, upon culture medium replacement (replaced by a half of the volume of the culture medium; replaced on every third days).
# Cells, which were positive to TRAP staining and internally contained 3 or more nuclei per cell, were collected as differentiated osteoclasts. […]
# [7] = tested on: osteoclast-like polykaryocytes from ddY mouse co-culture; test: Formation of bone resorption lacunae on a piece of dentinum by osteoclasts; format: cell-based; settings: 24 hours on dentinum, even at the highest concentration, 7.5 μg/mL (FIG. 11)
# Protocol: Investigated was the effect of ACNQ on the formation of bone resorption lacunae on a piece of dentinum by osteoclasts.
# As in the test (2) of Test 4, a culture (20 mL) containing primary osteoblast-like interstitial cells, which had been derived from the calvariae of ddY mice newborn, and bone marrow cells, which had been isolated from the femurs and shinbones of the same strain mice (males of 6 to 9 weeks of age), at a ratio of 1×10^6 cells to 1×10^7 cells in a 100 mm dish was co-cultured for 6 to 8 days on a collagen gel in αMEM medium in which 10% FEB and 10^−8 M 1α,25(OH)2D3 had been added. Medium replacement was conducted on every third days. After the culture, a 0.2% collagenase solution was added. The thus-obtained mixture was gently shaken at 37° C. for 20 minutes to digest the collagen gel, and differentiation-induced osteoclast-like polykaryocytes were collected. The count of osteoclasts obtained by this method was at most 4×10^4 cells/100 mm-dish.
# (§2) Those osteoclast-like polykaryocytes were prepared to 4×10^3 cells/mL with αMEM medium containing 10% FBS, seeded at 100 μL/well into wells (96 wells) in which pieces of dentinum were placed, respectively, and cultured at 37° C. for 2 hours. […] After the staining solution was removed, resorption lacunae formed in the surface of each piece of dentinum as a result of binging by […] were counted under a microscope. […]
# [8] = tested on: osteoclasts from ddY mouse co-culture; test: Cytotoxicity against osteoclasts on a piece of dentinum; format: cell-based; settings: differentiated and matured mouse osteoclasts (FIG. 11)
# Protocol: A still further investigation was also conducted on TRAP-positive cells formed by a co-culture system of primary osteoblast-like interstitial cells derived from the calvaria of a mouse newborn and mouse bone marrow cells. […] Effects of ACNQ on the activity of a bone re sorbing system were then investigated. Measured were the formation of resorption lacunae and cytotoxicity on a piece of dentinum in an osteoclast forming system by co-culture of primary osteoblast-like interstitial cells derived from the calvaria of the above mouse newborn and mouse bone marrow cells.
# as §2, with “hours. After the culture, the individual cultures were transferred to 24 wells or 48 wells in which a culture medium was placed at 0.5 to 1.5 mL/well. At the same time, ACNQ solutions of various concentrations were added to the wells, respectively, followed by culture at 37° C. for 24 hours.” for “hours.”
# [9] = tested on: osteoclast formation; settings: side chains of vitamin K1 or K2; Hara, K. et al.: Bone, 16, 179-184, 1995; cited from earlier work
compound,measurement,setting,value
"C=C1/C(=C\C=C2/CCC[C@]3(C)[C@@H]([C@H](C)CCCC(C)(C)O)CC[C@@H]23)C[C@@H](O)C[C@@H]1O [1α,25(OH)2D3, reference compound]",mineralization (Ca and P accumulation),[1]; 10^−8 M to 10^−9 M (FIGS. 6 and 7),promote mineralization concentration-dependently
"NC1=C(C(=O)O)C(=O)c2ccccc2C1=O [ACNQ, 2-amino-3-carboxy-1,4-naphthoquinone]",ACNQ concentration at which ALP activity reached the peak,[2]; 3 days culture (FIG. 4),~1 µg/mL
same,ALP activity of the cells,"[2]; 3 days culture, up to an ACNQ concentration of 1 μg/mL (FIG. 4)",increased concentration-dependently
same,"cytotoxicity (MTT assay, viable cell count)",[3],cytotoxicity was not observed at all
same,mineralization (Ca and P accumulation),[1]; 10^−5 M to 10^−7 M (FIGS. 6 and 7),promote mineralization concentration-dependently
same,cytotoxicity (free LDH in culture supernatant),[4],not determined to show cytotoxicity
same,formation of osteoclasts (TRAP-positive polykaryocytes),"[5]; human monocytes with 10^−8 M 1α,25(OH)2D3, ACNQ 10^−8 M to 10^−5 M (FIG. 9)",inhibited the formation of osteoclasts concentration-dependently
same,inhibitory effect on osteoclast formation compared with vitamin K1,"[5]; human monocytes, same concentration as vitamin K1 (FIG. 9)",significantly stronger than that available from vitamin K1
same,differentiation and maturation of monocytes into osteoclasts (TRAP-positive cells with 3 or more nuclei),"[6]; mouse co-culture with 1α,25(OH)2D3, 6 to 8 days, ACNQ 0.15 to 15 μg/mL (FIG. 10)",inhibited differentiation and maturation
same,formation of osteoclasts,"[6]; mouse co-culture, ACNQ at 1.5 μg/mL and higher (FIG. 10)",considerably inhibited the formation of osteoclasts
same,bone resorbing activity of osteoclasts (resorption lacunus counts),[7],did not lower the bone resorbing activity of osteoclasts
same,cytotoxicity against osteoclasts,[8],does not exhibit cytotoxicity against osteoclasts
C/C(=C\CO)CCC[C@H](C)CCC[C@H](C)CCCC(C)C [phytol],osteoclast-formation inhibitory effect,[9],weak in the inhibitory effect
